pIC50, pKi: −log10 of the molar value. Like-named read-outs stand apart in the source and are kept apart here.
Key:
[1] = target: T1, human lysosomal N-acetyl-β-hexosaminidase A (Homo sapiens, UniProt P06865); experiment: Human N-acetyl-β-hexosaminidase A activity in fibroblast homogenate (4-MU N-acetyl-β-glucosaminide-6-sulfate substrate); assay type: biochemical; conditions: normal human skin fibroblast homogenate, pH 4.4, 37 °C, 60 min; read-out: IC50 with human lysosomal N-acetyl-β-D-hexosaminidase A
T1 construct: endogenous in cells; host or cells: human skin fibroblasts (wild type), cell homogenate
T1 sequence (P06865 89-529): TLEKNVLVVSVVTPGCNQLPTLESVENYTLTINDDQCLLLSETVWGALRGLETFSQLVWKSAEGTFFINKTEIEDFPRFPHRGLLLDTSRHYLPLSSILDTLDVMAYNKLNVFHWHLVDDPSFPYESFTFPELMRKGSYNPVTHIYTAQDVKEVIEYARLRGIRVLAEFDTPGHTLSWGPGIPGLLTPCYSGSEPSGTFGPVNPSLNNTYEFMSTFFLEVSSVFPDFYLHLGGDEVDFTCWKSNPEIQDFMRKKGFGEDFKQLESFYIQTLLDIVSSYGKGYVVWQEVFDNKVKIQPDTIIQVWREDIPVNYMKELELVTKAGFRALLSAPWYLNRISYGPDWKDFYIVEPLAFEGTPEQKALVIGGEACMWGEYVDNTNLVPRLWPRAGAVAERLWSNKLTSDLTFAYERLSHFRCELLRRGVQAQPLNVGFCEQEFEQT
T1 sequence (P07686 122-311 partner limits assumed): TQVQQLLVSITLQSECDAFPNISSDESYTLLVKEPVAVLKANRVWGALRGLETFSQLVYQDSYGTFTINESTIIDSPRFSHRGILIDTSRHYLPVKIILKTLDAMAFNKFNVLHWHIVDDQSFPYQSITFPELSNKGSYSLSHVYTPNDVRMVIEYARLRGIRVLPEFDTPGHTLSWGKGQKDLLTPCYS
T1 sequence (P07686 315-556 partner limits assumed): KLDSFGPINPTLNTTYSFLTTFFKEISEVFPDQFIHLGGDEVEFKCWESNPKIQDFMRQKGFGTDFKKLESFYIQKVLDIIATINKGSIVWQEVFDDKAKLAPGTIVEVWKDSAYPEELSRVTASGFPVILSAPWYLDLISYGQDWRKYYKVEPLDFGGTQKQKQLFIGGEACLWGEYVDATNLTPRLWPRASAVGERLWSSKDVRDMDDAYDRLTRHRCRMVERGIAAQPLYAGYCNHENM
Source text: All cells used in this study were between the third and nineteenth passages.

[2] = target: T2, Streptomyces plicatus N-acetyl-β-hexosaminidase (SpHex) (Streptomyces plicatus, UniProt O85361); design: method as in PMID 11828466; conditions: with the same enzyme; read-out: Ki with SpHex (reference compound); cited from earlier work
T2 construct: made in house; host or cells: E. coli
T2 sequence (O85361 1-506): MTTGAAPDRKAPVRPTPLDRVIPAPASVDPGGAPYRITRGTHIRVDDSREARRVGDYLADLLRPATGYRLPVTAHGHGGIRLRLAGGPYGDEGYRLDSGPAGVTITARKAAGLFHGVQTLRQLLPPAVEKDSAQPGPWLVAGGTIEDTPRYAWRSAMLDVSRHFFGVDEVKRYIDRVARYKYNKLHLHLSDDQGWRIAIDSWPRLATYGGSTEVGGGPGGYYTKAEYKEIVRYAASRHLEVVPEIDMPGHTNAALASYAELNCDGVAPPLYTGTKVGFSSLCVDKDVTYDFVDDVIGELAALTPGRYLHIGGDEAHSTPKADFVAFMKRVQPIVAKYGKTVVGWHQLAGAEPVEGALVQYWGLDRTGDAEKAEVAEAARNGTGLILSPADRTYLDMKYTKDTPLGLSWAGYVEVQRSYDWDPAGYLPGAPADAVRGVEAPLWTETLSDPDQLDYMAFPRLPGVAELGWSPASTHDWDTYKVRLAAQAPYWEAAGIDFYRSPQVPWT

[3] = target: T2, Streptomyces plicatus N-acetyl-β-hexosaminidase (SpHex); experiment: SpHex kinetic inhibition assay (4-nitrophenyl N-acetyl-β-D-glucosaminide substrate, competitive model); assay type: biochemical
Protocol: Streptomyces plicatus N-acetyl-β-hexosaminidase, SpHex, was expressed and purified in E. coli as described previously. Kinetic studies were performed at 25 °C in the assay buffer (sodium phosphate (50 mM), sodium citrate (50 mM), NaCl (100 mM), BSA (2 mg/mL), pH = 6.0). The enzyme was incubated with different concentrations of the inhibitors for 2–5 min prior to the start of the reaction by addition of the substrate (4-nitrophenyl N-acetyl-β-D-glucosaminide) and the initial rates were measured by monitoring the increase in absorbance at 405 nm for three to five minutes using a microplate reader (Synergy H1, BioTek, VT, USA). Ki determinations were performed using two or three different substrate concentrations. For each one of these substrate concentrations a range of five to eight different inhibitor concentrations bracketing the ultimately determined Ki value were used. Dixon plots (1/rate vs [I]) were constructed to validate the use of a competitive inhibition model. The data were then fit to a competitive inhibition model using non-linear regression analysis with GraFit 7.0 (Erithacus Software, UK). Assays were done twice using enzyme concentrations of 0.3 nM and 0.03 nM respectively in order to check compliance with the assumptions of Michaelis Menten kinetics ([E] << [I]). In addition, for compound 25, the assays were done a third time with the concentration of enzyme lowered to 0.003 nM. In all cases, the Ki values were in good agreement.

| SMILES | pIC50 [1] | pKi [2] | pKi ([3]; 25 °C, pH 6.0, competitive inhibition model, read-out: Ki-values with SpHex) | pKi [3] |
| --- | --- | --- | --- | --- |
| CC(=O)NC1CNC(CO)C(O)C1O (centres unmarked) [compound 1, 2-acetamido-1,2-dideoxynojirimycin, reference compound] | 4.51 | 4.10 |  |  |
| CC(=O)NC1C(N)C(CO)C(O)C1O (centres unmarked) [compound 20] |  |  | 9.15 |  |
| CCCCCCNC1C(CO)C(O)C(O)C1NC(C)=O (centres unmarked) [compound 21] | 6.06 |  |  | 9.22 |
| COC(=O)CCCCCNC1C(CO)C(O)C(O)C1NC(C)=O [compound 22, (1S,2R,3S,4R,5R)-N-(Methoxycarbonyl)pentyl-3-acetamido-4-amino-5-hydroxymethyl-cyclopentanetriol] |  |  |  | 9.15 |
| CC(=O)NC1C(O)C(O)C(CO)C1NCCCCCCNS(=O)(=O)c1cccc2c(N(C)C)cccc12 [compound 25, (1S,2R,3S,4R,5R)-N-(6-Dansylamino)hexyl-3-acetamido-4-amino-5-hydroxymethyl-cyclopentanetriol] | 6.52 |  |  | 10.22 |

Reference: PMC6017319, “Potent GH20 N-Acetyl-β-D-hexosaminidase Inhibitors: N-Substituted 3-acetamido-4-amino-5-hydroxymethyl-cyclopentanediols” (Molecules : A Journal of Synthetic Chemistry and Natural …, 2018)
